pIC50: −log10 of the molar value.
molecular target: human Cereblon WT GST-tagged protein (Homo sapiens (Human), UniProt Q96SW2); experiment: CRBN-binding affinity, HTRF (CEREBLON BINDING kit)
Outline: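 HTRF competition readout: compounds compete with a thalidomide-Re conjugate for GST-tagged wild-type human CRBN detected via Eu-labelled anti-GST antibody. Inhibition rate derived relative to protein-free blank wells.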

Chain of human Cereblon WT GST-tagged protein (Q96SW2 whole entry): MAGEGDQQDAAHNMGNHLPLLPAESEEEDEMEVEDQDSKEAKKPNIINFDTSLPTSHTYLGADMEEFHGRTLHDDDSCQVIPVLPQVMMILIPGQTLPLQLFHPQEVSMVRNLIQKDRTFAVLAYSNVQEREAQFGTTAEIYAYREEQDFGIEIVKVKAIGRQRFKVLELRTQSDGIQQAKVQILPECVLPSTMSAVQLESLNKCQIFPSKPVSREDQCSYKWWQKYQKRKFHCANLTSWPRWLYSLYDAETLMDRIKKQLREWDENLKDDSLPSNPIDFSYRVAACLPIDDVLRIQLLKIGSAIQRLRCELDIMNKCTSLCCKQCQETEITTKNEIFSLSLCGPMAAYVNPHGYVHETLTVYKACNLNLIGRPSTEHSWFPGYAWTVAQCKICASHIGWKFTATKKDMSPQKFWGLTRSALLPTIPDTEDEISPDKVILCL

Row | Compound | pIC50
1 | CC1(C)CCC(C(=O)N2CC(=Cc3ccc4c(c3)CN(C3CCC(=O)NC3=O)C4=O)C2)=C(c2ccc(F)cc2)C1 (centres unmarked) [GT-05489, 3-(5-((1-(4′-fluoro-5,5-dimethyl-3,4,5,6-tetrahydro-[1,1′-biphenyl]-2-carbonyl)azetidin-3-ylidene)methyl)-1-oxoisoindolin-2-yl)piperidine-2,6-dione] | 6.21
2 | O=C1CCC(N2Cc3ccc(CN4C5CC4CN(C(=O)C4=C(c6ccc(F)cc6)CCCC4)C5)cc3C2=O)C(=O)N1 (centres unmarked) [GT-05479, 3-(6-((3-(4′-fluoro-3,4,5,6-tetrahydro-[1,1′-biphenyl]-2-carbonyl)-3,6-diazabicyclo[3.1.1]heptan-6-yl)methyl)-1-oxoisoindolin-2-yl)piperidine-2,6-dione] | 6.14
3 | O=C1CCC(N2Cc3c(ccc(CN4C5CC4CN(C(=O)c4ccccc4-c4ccc(Cl)cc4)C5)c3F)C2=O)C(=O)N1 (centres unmarked) [GT-05666, 3-(5-((3-(4′-chloro-[1,1′-biphenyl]-2-carbonyl)-3,6-diazabicyclo[3.1.1]heptan-6-yl)methyl)-4-fluoro-1-oxoisoindolin-2-yl)piperidine-2,6-dione] | 6.16
4 | CC1(C)CCC(CN2CCC(Cc3ccc4c(c3)CN(C3CCC(=O)NC3=O)C4=O)CC2)=C(c2ccc(F)cc2)C1 (centres unmarked) [GT-03455, 3-(5-((1-((4′-fluoro-5,5-dimethyl-3,4,5,6-tetrahydro-[1,1′-biphenyl]-2-yl)methyl)piperidin-4-yl)methyl)-1-oxoisoindolin-2-yl)piperidine-2,6-dione] | 6.47
5 | CC1(C)CCC(C(=O)N2C3CCC2CN(c2ccc4c(c2)CN(C2CCC(=O)NC2=O)C4=O)C3)=C(c2ccc(F)cc2)C1 (centres unmarked) [GT-05491, 3-(5-(8-(4′-fluoro-5,5-dimethyl-3,4,5,6-tetrahydro-[1,1′-biphenyl]-2-carbonyl)-3,8-diazabicyclo[3.2.1]octan-3-yl)-1-oxoisoindolin-2-yl)piperidine-2,6-dione] | 6.01
6 | CC1(C)CCC(CN2CC3CCC2CN3Cc2cccc3c2C(=O)N(C2CCC(=O)NC2=O)C3)=C(c2ccc(Cl)cc2)C1 (centres unmarked) [GT-05462, 3-(7-((5-((4′-chloro-5,5-dimethyl-3,4,5,6-tetrahydro-[1,1′-biphenyl]-2-yl)methyl)-2,5-diazabicyclo[2.2.2]octan-2-yl)methyl)-1-oxoisoindolin-2-yl)piperidine-2,6-dione] | 5.72
7 | CC1(C)CCC(CN2CCCN(C(=O)c3ccc4c(c3)CN(C3CCC(=O)NC3=O)C4=O)CC2)=C(c2ccc(F)cc2)C1 (centres unmarked) [GT-05505, 3-(5-(4-((4′-fluoro-5,5-dimethyl-3,4,5,6-tetrahydro-[1,1′-biphenyl]-2-yl)methyl)-1,4-diazepane-1-carbonyl)-1-oxoisoindolin-2-yl)piperidine-2,6-dione] | 6.09
8 | O=C1CCC(N2Cc3cc(C(=O)N4CCCN(Cc5ccccc5-c5ccc(Cl)cc5)CC4)ccc3C2=O)C(=O)N1 (centres unmarked) [GT-05616, 3-(5-(4-((4′-chloro-[1,1′-biphenyl]-2-yl)methyl)-1,4-diazepane-1-carbonyl)-1-oxoisoindolin-2-yl)piperidine-2,6-dione] | 6.05

From US20260028326A1, “COMPOUND BASED ON ISOINDOLINE-SUBSTITUTED GLUTARIMIDE BACKBONE AND USE THEREOF” (GLUETACS THERAPEUTICS (SHANGHAI) CO., LTD., priority 2022, published 2026)
